Experiment: Human HepG2 cell viability assay in 384 well format
Format: toxicity, cell-based
Parameters: dose 125 nL, time 70.5 hour; concentration not given beside the values
Settings: HepG2 cells, read-out: Inhibition

SMILES | cytotoxicity at 70.5 h [%]
Cc1cccc(-c2ncc(CNC(C)Cc3ccncc3)cn2)c1 (stereo not given) | -3.63
Cc1ccc(C)c(CC(=O)NC2CCCS(=O)(=O)C2)c1 (stereo not given) | 6.95
OCCNc1cc(N2CCN(Cc3ccccc3)C(CCO)C2)ncn1 (stereo not given) | -7.07
CCOc1ccccc1C(=O)N(C)C(C)c1ccc(S(C)(=O)=O)cc1 (stereo not given) | -6.38
CC(C)NC(=O)C[C@@H]1CCNC[C@@H]1Cc1cc(-c2ccccc2)on1 | -1.73
Cc1nccc(C2CN(S(=O)(=O)N(C)C)C2)n1 | -1.63
COC(=O)c1ccc(N2CCN(C(=O)c3cccnc3)C(C)C2)cc1 (stereo not given) | -4.39
CCN1C(=O)CC(c2cnn(C)c2)C12CCN(C(=O)C1CC=CC1)CC2 (stereo not given) | 0.244
Cc1nc2c(c(=O)n1C)CCN(C(=O)CCc1ccccn1)CC2 | -5.46
Cc1nc(CC(=O)N2CCCC2Cn2cccn2)cs1 (stereo not given) | -5
NC(=O)CCC1CCCN(Cc2cnc(N3CCCCC3)nc2)C1 (stereo not given) | -3.37
CCc1nc(C2CCCN(C(=O)C3=NN(CC)C(=O)CC3)C2)no1 (stereo not given) | -13.2
COCCN1CCCn2c(nc(Cn3cncn3)cc2=O)C1 | 19.3
CCCn1ncc2c(C(=O)Nc3cnn(CC)c3C)cc(C3CC3)nc21 | 5.37
O=C(c1nc(=O)[nH]c2ccccc12)N1CCCC(CC2CC2)(C(=O)O)C1 (stereo not given) | -8.79
CC1CN(CC(=O)NC2CCOCC2)CCN1Cc1nccn1C (stereo not given) | -0.539
Cc1cc(C(=O)N2CCCC(c3cc(C(F)(F)F)[nH]n3)C2)[nH]n1 (stereo not given) | 3.57
CC(C)C[C@H]1CN(c2nc3c(cc2C(N)=O)CCC3)CC[C@@]1(C)O | -7.33
CCN(C(c1cccnc1)c1ccc(F)c(F)c1)S(C)(=O)=O (stereo not given) | -4.7
CSC(C)C(=O)N1CCN(CCO)CC1 (stereo not given) | -6.94
Cc1cc(CNC(=O)NCCC(=O)N2CCCc3ccccc32)no1 | 7.7
O=C(CCc1nc2cc(Br)cnc2[nH]1)NCCCn1ccnc1 | -17.5
COc1ccccc1N1CCN(c2nc(N)nc3[nH]cnc23)CC1 | -11.3

SMILES | cytotoxicity at 70.5 h [%]
Cc1ccccc1C(=O)N1CCCn2cnc(CN3CCCC3=O)c2C1 | -4.3
Cc1cn2nc(N3CCCC3C(=O)N3CCOCC3)sc2n1 (stereo not given) | -15.3
O=c1cc(CN2CCCC2)nc2n1CCCN(Cc1ccoc1)C2 | 1.82
Cc1nnc2n1CCN(C(=O)c1cn(-c3ccccc3Cl)nn1)C2 | -9.21
Cc1cccc(CS(=O)(=O)CC(=O)NCCCOC(C)C)c1 | 16.8
Cc1ccccc1CNC(=O)CNc1ccc(OC2CCOC2)cc1 (stereo not given) | -13.6
O=C(CC1COCCN1)NCCc1nc(-c2ccccn2)no1 (stereo not given) | -6.55
Cc1c(C)n2c(SCC(=O)N3CCCCC3)nnc2[nH]c1=O | -8.89
c1ccc(COC[C@@H]2CCC[C@@]23CNCCO3)nc1 | 14.4
CCC(=O)N1CCCCC1c1nc(CN(C)C(C)=O)cc(N(C)C)n1 (stereo not given) | -1.37
CN(C)C(=O)C1CCN(c2cncc(-n3cccn3)n2)CC1 | 10.2
Cc1n[nH]c(C)c1C1COCCN1c1ncnc2sccc12 (stereo not given) | -13
O=S(=O)(Nc1cnn(C2CCOCC2)c1)c1ccc(F)c(F)c1 | 1.31
COCCC1CN(c2nc(-c3ccccc3)nc3c2CCNC3)CCO1 (stereo not given) | 25.4
COCCN(Cc1ccoc1)C(=O)c1c(F)cccc1F | -3.64
N#Cc1cnn(-c2ccc(C(=O)N(C3CCCCC3)C3CC3)cc2)c1N | -0.0932
Cc1csc(Nc2nccnc2C2CCCN2C(=O)C(C)C)n1 (stereo not given) | -18.2
COc1ccc(F)c(CN(CCCn2ccnc2)Cc2ccc(C)s2)c1 | 45.5
CN(CCOc1cccc(F)c1)Cc1nc2c(cnn2C)c(=O)[nH]1 | -8.53
CCOCCCC(=O)Nc1[nH]nc(-c2ccncc2)c1C | -9.37
COc1ccc(CNc2c(N3CCN(C(C)=O)CC3)c(=O)c2=O)cc1 | -12.5
CN1CC(C)(C)CN(C(=O)CCc2ccccc2)CC1=O | -1.8
CCOc1ccc(CN2CCN(C(=O)c3ccc(C)n3C)CC2)cc1 | -0.122

SMILES | cytotoxicity at 70.5 h [%]
COC(=O)c1ccc(OCCn2cnc(C#N)n2)cc1 | -24.3
CCc1cc(C(=O)N2CCC3(CCCN(CC4CC4)C3=O)C2)cs1 (stereo not given) | 6.71
CC(=O)N1C(CN2CCCC2)C[C@@H]2CN(C(=O)c3ccoc3)CC[C@@H]21 (stereo not given in full) | -15.6
CN1CCN(C(=O)Cc2ccsc2)Cc2cccnc21 | -1.77
CCc1[nH]c2c(CNC(=O)C3CCN(C)C3)cc(C)cc2c1C (stereo not given) | -8.68
O=S1(=O)CCN2C(=N1)Oc1ccc(S(=O)(=O)N3CCCC3)cc12 | -5.8
CCN(CCNC(=O)c1cccc(C)c1C)C1CC1 | -4.1
O=c1ccc2c([nH]1)CCC(NCc1ccc(F)cc1)C2 (stereo not given) | -5.16
CCOc1ccccc1OC1CCN(Cc2ccn(C)c(=O)c2)CC1 | 20.3
COCCC1(CNC(=O)Nc2ccnc(C)c2)CCCC1 | -20.4
Cc1ncnc2c1CCN(C(=O)c1ccoc1)CC2 | -6.33
CC(C(=O)Nc1ccc(C#N)cc1)N1CCc2ccccc21 (stereo not given) | 43.4
Cn1cc(C2CCCN2C(=O)CCc2cnn(-c3ccccc3)c2)cn1 (stereo not given) | -3.27
O=C(NCc1ccccn1)[C@@]12CCO[C@@H]1CCN(Cc1ccccn1)C2 | -5.8
CC1(C)CN(C(=O)CC2CCC2)C[C@]1(C)O | -2.02
Cc1cccc2[nH]c(C3CCN(C(=O)c4ccc[nH]4)CC3)nc12 | -6.62
Nc1cccnc1N1CCC(O)CC1 | -1.82
Cc1ccc(C2CSCCN2C(=O)C2=CCCC2)o1 (stereo not given) | -6.86
COCCCNC(=O)CN(C)C(=O)c1cc(C)ccc1N(C)C(C)C | -3.7
CNC(=O)CN1CC[C@H]2CN(C(=O)c3cccn3C)C[C@H]2C1 | -5.44
CCN(CC)CC1CN(Cc2nccs2)Cc2nccn2C1 (stereo not given) | -9.42
CO[C@@H]1CC[C@H]2[C@H]1OCCN2S(=O)(=O)C1CC1 | -9.16
O=C(NC1CCCC1)N1CCC2(CC1)CC(Oc1cccnc1)CO2 (stereo not given) | 26.9

SMILES | cytotoxicity at 70.5 h [%]
CN(Cc1cccnc1)CC1CC12CCN(c1nncs1)CC2 (stereo not given) | -12.3
CO[C@@H]1CC[C@H]2[C@H]1OCCN2C(=O)c1ccco1 | -1.75
Cc1ccc(-c2cc(CNC(=O)N3CCC(CO)CC3)on2)cc1 | 5.23
Cc1c(C)c(C)c2[nH]c(-c3cn(C4CCNCC4)nn3)nc2c1C | -5.74
Cc1nnc(NCC2(c3ccc(Cl)cc3Cl)CCOCC2)c(C#N)c1C | 13.2
COC(=O)c1ccc(Cn2nc(C)cc2C)c(F)c1 | -4.1
Cc1nc(CN2CCc3nc(NC(C)C)nc(C)c3C2)cs1 | -6.71
CCSCCC(=O)NCCn1nc2ccccn2c1=O | -7.12
CCc1cccc(OCC(=O)NC(C)c2nnc3n2CCC3)c1 (stereo not given) | -3.83
CC(NCc1cc(O)c2cccc(F)c2n1)c1ccc(S(C)(=O)=O)cc1 (stereo not given) | -12.6
CNc1nccnc1C1CN(C(=O)c2cc[nH]n2)CCO1 (stereo not given) | -4.96
CCN1CCC2(CC1)OCCN2C(=O)c1cc(Cl)c(OC)c(Cl)c1 | 8.67
O=C(c1cc(C2CC2)on1)N1CCCC(n2cccn2)C1 (stereo not given) | 23.8
Cc1nc(C2CCCC2)sc1C(N)=O | 12
Cn1cc(S(=O)(=O)Nc2ccc3[nH]c(C4CCC4)nc3c2)cn1 | 0.665
Cc1cnn(CC2CCCN2c2ncnc3sccc23)c1 (stereo not given) | 1.15
Cc1cc(C[S+]([O-])CC(=O)NCc2cccs2)no1 (stereo not given) | -4.91
Cc1nnc(NC(=O)c2cc(S(=O)(=O)N3CCSCC3)c[nH]2)s1 | -0.0324
COc1c(Cl)cccc1NCc1csc(NC(C)=O)n1 | 3.58
CC(NC(=O)Nc1nccs1)c1ccc(S(C)(=O)=O)cc1 (stereo not given) | -18.5
Fc1ccc(F)c(CN2CCC(c3cnccn3)CC2)c1 | -5.3
CCNc1ncc(C(=O)NCCNc2ccncc2C)cn1 | 3.69
Cc1[nH]ncc1C(C)NCc1ccc(F)cc1 (stereo not given) | -1.27

SMILES | cytotoxicity at 70.5 h [%]
COc1cc(C(=O)N2CCCS2(=O)=O)ccc1C | 18.4
CNc1nc(CNC(=O)Nc2ccccc2C(F)(F)F)cs1 | -2.38
O=C1Nc2ccccc2NC12CCN(Cc1nnc(C3CC3)o1)CC2 | -5.39
O=C(NCCCc1nc(=O)[nH][nH]1)Nc1cccc(F)c1 | -1.96
COCCN(Cc1sccc1C)C(=O)C1CCN(C(C)C)CC1 | -2.9
COCCNS(=O)(=O)c1cccc2c1CN(C(=O)c1cnccn1)CC2 | -3.11
COC(=O)N1CCC(Nc2ccc(C#N)c(Cl)c2)C1 (stereo not given) | 1.68
Cc1ccccc1S(=O)(=O)NC(=O)C1(c2ccccc2)CCC1 | -9.55
CCOC(C)C(=O)Nc1ccc(Sc2nncn2C)c(Cl)c1 (stereo not given) | -4.37
O[C@@H]1C[C@@H](c2nc(-c3ccccc3)no2)N(CC2CCCCC2)C1 | -12.5
Cc1cc(CN2CCCC(Cn3cncn3)C2)on1 (stereo not given) | -3.16
CN(C)C(=O)Cc1ccc(NCc2nccn2C)cc1 | -2.12
O=C(NCC1CCS(=O)(=O)C1)N(Cc1ccccn1)C1CC1 (stereo not given) | -6.34
Cn1cc(CN2CCc3c(COCC4CC4)cncc3C2)cn1 | -1.91
O=C(O)CSc1nnc(-c2ccn[nH]2)n1-c1ccccc1Cl | -6.93
Cc1nc(O)cc(CCNC(=O)c2ccccc2N2CCCC2)n1 | 27
Cn1cc(C2CCCN2C(=O)Cc2coc(-c3ccccc3)n2)cn1 (stereo not given) | -7.27
Cc1nn(C)c(C)c1NC(=O)CNc1cc(C(F)(F)F)ccc1F | 25
O=C1NC2(CCN(CCO)CC2)CC1c1ccccc1 (stereo not given) | -2.09
CN(CCSc1nncn1CC(F)(F)F)c1ccccc1 | 1.22
CN(CC(O)COc1ccc(C(F)(F)F)cc1)C(=O)Nc1nncs1 (stereo not given) | 19.7
Cn1c(CCN2CCN(CCc3ccccc3)CC2)nc2ccccc21 | -6.23
COc1cccc2cc(CNCc3ccnc(N4CCCCC4)c3)oc12 | 3.87
